One assay concerns rats. The experiment in a line: CFA-induced paw radiant heat hypersensitivity. It counts as in vivo, rat. The following applies: HCl salt in 20% HPβCD, treatment time 30 min. As to the method:
Each rat was placed in a test chamber on a thermally controlled glass surface and allowed to acclimate for approximately 10 min. A radiant thermal stimulus (beam of light) was then focused through the glass onto the plantar surface of the hind paw. The thermal stimulus was automatically shut off by a photoelectric relay when the paw was moved or when the cut-off time was reached (20 sec). An initial (baseline) response latency to the thermal stimulus was recorded for each animal prior to the injection of CFA. 24 h following intraplantar CFA injection, the response latency to the thermal stimulus was then re-evaluated and compared to the animal's baseline response time. […] Immediately following the post-CFA latency assessment, test compound or vehicle (usually solutol, hydroxypropyl methylcellulose, hydroxypropyl beta-cyclodextrin or PEG-400) was administered i.p. or p.o. to rats. Post-compound treatment withdrawal latencies were assessed at fixed time intervals, typically 30, 60 and 120 minutes. The percent reversal of hypersensitivity is calculated according to the following formula: % reversal=(post dose latency-predoselatency)/(baseline (pre CFA) latency-predose latency)×100.
Compound #12 (as its corresponding HCl salt) was administered in a solution of 20% HPβCD, at a dose of 30 mg/kg, i.p. and a treatment time of 30 min.

Assay [1] concerns Male Sprague Dawley rats. Put plainly: Chronic constriction injury (CCI)-induced model of neuropathic pain, acetone-induced hypersensitivity. It counts as in vivo. To be noted: HCl salt, 30 mg/kg oral dosing in 20% HPbCD. From the text:
Male Sprague Dawley rats (225-450 g; n=5-8/treatment) were used to evaluate the ability of selected compounds of the Formula (I) to reverse CCI-induced cold hypersensitivity. Four loose ligatures of 4-0 chromic gut were surgically placed around the left sciatic nerve under inhalation anesthesia as described by Bennett et al (Bennett G J, Xie Y K. Pain 1988, 33(1): 87-107). Fourteen to 35 days following CCI surgery, subjects were placed in elevated observation chambers containing wire mesh floors, and five applications of acetone (0.05 mL/application separated by approximately 5 minutes) were spritzed onto the plantar surface of the paw using a multidose syringe. An abrupt withdrawal or lifting of the paw was considered a positive response. The number of positive responses was recorded for each rat over the five trials. Following baseline withdrawal determinations, compounds of formula (I) were administered in an appropriate vehicle, such as hydroxypropyl-β-cyclodextrin (HP β CD), methylcellulose, Methocel, 10% Solutol, or H2O, or the like, by the appropriate route, i.p. or p.o. The number of withdrawals were re-determined 1 to 4 h after compound administration. Results are presented as a percent inhibition of shakes, which was calculated for each subject as [1-(test compound withdrawals/pre-test withdrawals)]×100 and then averaged by treatment.

The test system of assay [2] is Male Sprague Dawley rats. Put plainly: Visceral hyperalgesia model (colorectal distension, zymosan colitis). The class given is in vivo. The following applies: 30 mg/kg, s.c.; 20 min after dosing; vehicle-treated rats 239.6±28.9% of control. As to the method: This protocol uses barostat-controlled, isobaric colorectal distensions (CRD) in rats to evaluate the potency and efficacy of test compounds in treating visceral hyperalgesia. Male Sprague Dawley rats, weighing 275-350 g, (Charles River Labs) were housed 2-4/cage in a temperature and humidity controlled room with a 12 h/12 h light/dark cycle and ad libitum access to food and water. One day after release from quarantine, rats were acclimated to progressively longer (30 min and, 4 h later, 45 min) periods of simple restraint in plexiglass devices (G-3, rat ECU; Braintree Scientific; Braintree Mass.). The rats were returned to their home cage overnight. […] The balloon pressure, which represents intracolonic pressure, was continuously recorded. […]
The following morning, colitis was induced by the intracolonic instillation of a 1.5-mL bolus of 2.5% (w/v) zymosan A (from Saccharomyces cerevisiae; Sigma Chemical Co., St. Louis) in 30% ethanol under light 70% CO2: 30% O2 anesthesia. […] The identical CRD stimuli were applied, and manometric VMRs were recorded and analyzed as described for the control phase of the experiment. […] CRD stimuli at 45 mmHg elicited peak responses in the control (pre-zymosan) condition; therefore, the responses of each rat were calculated as a percent of the manometric VMR at that pressure, recorded the day before induction of colitis; thus, each rat served as its own control. […]

A further assay concerns HeLa cells. The experiment in a line: 2-AG accumulation assay using HeLa cells. It counts as cell-based. To be noted: Homo sapiens.
Where [3] appears, read: HeLa cell homogenate, 2-AG accumulation relative to MAFP, compound @10 μM (second of two columns with the same head), read-out: Ex. 5 % MAFP @10 μM (second column).
[4] abbreviates: HeLa cell homogenate, 2-AG accumulation relative to MAFP, compound @10 μM as printed (first of two columns with the same head), read-out: Ex. 5 % MAFP @10 μM (first column).

Where two headings read alike, the source gives them in different places.

This note sets out measurements from US20130184251A1, “HETEROAROMATIC AND AROMATIC PIPERAZINYL AZETIDINYL AMIDES AS MONOACYLGLYCEROL LIPASE INHIBITORS” (Janssen Pharmaceutica, NV, priority 2009, published 2013).

For orientation: ED50 means the midpoint of the dose-response relation.

For `O=C(c1ccc(-c2ccccc2)cc1)N1CC(N2CCN(c3ncccn3)CC2)C1` [Compound #12, Biphenyl-4-yl-[3-(4-pyrimidin-2-yl-piperazin-1-yl)-azetidin-1-yl]-methanone], in the assay on rats (30 mg/kg, i.p.), the reversal of hypersensitivity turned out to be 90.3%. Also, the ED50 in the assay with rats (Rattus norvegicus, ip, 0.5 h) stood at 0.9 mg/kg. The “Percent Inhibition (of shakes)” value in the assay on Male Sprague Dawley rats [1] (pretreatment time 1 hr) turned out to be 57.1%; with Male Sprague Dawley rats [1] (pretreatment time 2 hr), 74.3%; in the assay with Male Sprague Dawley rats [1] (pretreatment time 3 hr), 80.0%; in the assay with Male Sprague Dawley rats [1] (pretreatment time 4 hr), 48.6%. Besides, in the assay on Male Sprague Dawley rats [2], the “hyperalgesic response (manometric VMR) to 45 mmHg CRD” value is 103.8±22.1 % of control. For the same compound, the Emax at 10 µM was found to be 108% in the assay on HeLa cells (setting [3]) and 63.1% in the assay on HeLa cells (setting [4]).

In the case of `Cc1c(C(=O)N2CC(N3CCN(c4ccccn4)CC3)C2)nn(-c2ccc(Cl)cc2Cl)c1-c1ccc(Cl)cc1` [compound 39, 1-(1-{[5-(4-Chlorophenyl)-1-(2,4-dichlorophenyl)-4-methyl-1H-pyrazol-3-yl]carbonyl}azetidin-3-yl)-4-pyridin-2-ylpiperazine], the Emax at 10 µM in the assay on HeLa cells (HeLa, read-out: Ex. 5 % MAFP @10 μM) was 87.6%.

Take `CN(CC1CCCCC1)c1ccc(CCC(=O)N2CC(N3CCN(c4ccccn4)CC3)C2)cc1` [compound 40, N-(Cyclohexylmethyl)-N-methyl-4-{3-oxo-3-[3-(4-pyridin-2-ylpiperazin-1-yl)azetidin-1-yl]propyl}aniline]: the values for the Emax at 10 µM in the assay on HeLa cells (setting [3]) and in the assay with HeLa cells (setting [4]) were 90.4% and 77.3%, respectively.

For the compound `O=C(/C=C/c1ccc(SC(F)(F)F)cc1)N1CC(N2CCN(c3ccccn3)CC2)C1` [compound 41, 1-Pyridin-2-yl-4-{1-[(2E)-3-(4-[(trifluoromethyl)sulfanyl]phenyl}prop-2-enoyl]azetidin-3-yl}piperazine], in the assay on HeLa cells (setting [3]), the Emax at 10 µM was 66.8%.

Take `O=C(c1cccc(-c2ccc(F)cc2)c1)N1CC(N2CCN(c3ccccn3)CC2)C1` [compound 52, 1-{1-[(4′-Fluorobiphenyl-3-yl)carbonyl]azetidin-3-yl}-4-pyridin-2-ylpiperazine]: the Emax at 10 µM with HeLa cells (setting [3]) amounted to 52.2%; in the assay on HeLa cells (setting [4]) it was 28%.

Regarding `O=C1c2ccccc2-c2ccc(C(=O)N3CC(N4CCN(c5ccccn5)CC4)C3)cc21` [compound 59, 2-{[3-(4-Pyridin-2-ylpiperazin-1-yl)azetidin-1-yl]carbonyl}-9H-fluoren-9-one], the Emax at 10 µM came out at 39.7% in the assay with HeLa cells (setting [3]) and 10.2% with HeLa cells (setting [4]).

With `O=C(c1ccc(-c2ccccc2)c(F)c1)N1CC(N2CCN(c3ccccn3)CC2)C1` [compound 60, 1-{1-[(2-Fluorobiphenyl-4-yl)carbonyl]azetidin-3-yl}-4-pyridin-2-ylpiperazine], the Emax at 10 µM with HeLa cells (setting [3]) is 57.8%; in the assay on HeLa cells (setting [4]), 28.2%.

For the compound `O=C(c1ccccc1)c1ccc(C(=O)N2CC(N3CCN(c4ccccn4)CC3)C2)cc1` [compound 74, Phenyl(4-{[3-(4-pyridin-2-ylpiperazin-1-yl)azetidin-1-yl]carbonyl}phenyl)methanone], the Emax at 10 µM in the assay with HeLa cells (setting [3]) was found to be 29.5%.

For `O=C(c1ccccc1)c1cccc(C(=O)N2CC(N3CCN(c4ccccn4)CC3)C2)c1` [compound 86, Phenyl(3-{[3-(4-pyridin-2-ylpiperazin-1-yl)azetidin-1-yl]carbonyl}phenyl)methanone], the Emax at 10 µM in the assay on HeLa cells (setting [3]) was 10.4%.

Regarding `O=C(Cc1ccc(-c2ccccc2)cc1)N1CC(N2CCN(c3ccccn3)CC2)C1` [compound 88, 1-[1-(Biphenyl-4-ylacetyl)azetidin-3-yl]-4-pyridin-2-ylpiperazine], the Emax at 10 µM in the assay with HeLa cells (setting [3]) turned out to be 2.8%.

For the compound `O=C(c1cccc2c1Cc1ccccc1-2)N1CC(N2CCN(c3ccccn3)CC2)C1` [compound 96, 1-[1-(9H-Fluoren-1-ylcarbonyl)azetidin-3-yl]-4-pyridin-2-ylpiperazine], the Emax at 10 µM in the assay on HeLa cells (setting [3]) was found to be 0%.

For `O=C(c1ccc(OCc2ccccc2)cc1)N1CC(N2CCN(c3ncccn3)CC2)C1` [compound 111, 2-[4-(1-{[4-(Benzyloxy)phenyl]carbonyl}azetidin-3-yl)piperazin-1-yl]pyrimidine], in the assay on HeLa cells (setting [3]), the Emax at 10 µM came out at 106%.

Take `O=C(c1ccc(OCc2ccccc2)cc1)N1CC(N2CCN(c3ccccn3)CC2)C1` [compound 112, 1-(1-{[4-(Benzyloxy)phenyl]carbonyl}azetidin-3-yl)-4-pyridin-2-ylpiperazine]: the Emax at 10 µM in the assay with HeLa cells (setting [3]) was 79.2%.

In the case of `CC(C)(C)OC(=O)N1CCC(c2ccc(C(=O)N3CC(N4CCN(c5ccccn5)CC4)C3)cc2)CC1` [compound 122, tert-Butyl 4-(4-{[3-(4-pyridin-2-ylpiperazin-1-yl)azetidin-1-yl]carbonyl}phenyl)piperidine-1-carboxylate], the Emax at 10 µM in the assay on HeLa cells (setting [3]) turned out to be 67.8%.
